Measurements as given in US20090170886A1 (Pfizer Inc, priority 2005, published 2009).
Where two headings read alike, the source gives them in different places.

Tested on: sebum production in ear sebaceous glands of male Syrian hamsters
Assay: Animal Model for Inhibition of Sebum Production (hamster ear, HPLC of sebum lipids)
Type: in vivo, Syrian hamster
Settings: Mesocricetus auratus, 672 h, 4 weeks; for inhibition in vivo at 3 %: 3% topical twice daily; for inhibition in vivo at 1 %: 1% topical twice daily; for inhibition in vivo at 1.5 %: 1.5% topical twice daily
Protocol: Luderschmidt et al. describes an animal model for testing whether compounds are capable of modulating sebum secretion, Arch. Derm. Res., 258, 185-191 (1977). This model uses male Syrian hamsters, whose ears contain sebaceous glands. Based on binding data and cellular assay data, selected compounds were chosen for screening in this model. Those compounds included the products of Examples 1, 20, 81, 82, and 109.
Testing for sebum inhibition was carried out in the following manner. Male Syrian hamsters aged 9 to 10 weeks were introduced into the laboratory environment and acclimated for 2 weeks prior to use in the study. Each group consisted of 5 animals and run in parallel with vehicle and positive controls. Prior to administration, a sufficient quantity of each compound was dissolved in 1 mL of a solvent consisting of ethanol, transcutol, and propylene glycol ([…]) to achieve the final concentration specified in Table IV below.
Animals were dosed topically twice daily, five days a week, for 4 weeks. Each dose consisted of 25 micro liters of vehicle control or drug. The dose was applied to the ventral surfaces of both the right and left ears. All animals were sacrificed approximately 18-24 hours after the final dose. The right ears were collected from each animal and used for sebum analysis.
The ears were prepped for HPLC analysis in the following manner. One 8 mm distal biopsy punch was taken, just above the anatomical “V” mark in the ear to normalize the sample area. The punch was pulled apart. The ventral biopsy surface (the area where the topical dose was directly applied to the sebaceous glands) was retained for testing and the dorsal surface of the biopsy punch was discarded.
Tissue samples were blown with N2 gas and stored at −80° C. under nitrogen until HPLC analysis. In addition to ear samples, an aliquot of each drug and vehicle (at least 250 ul) was also stored at −80° C. for inclusion in the HPLC analysis.
HPLC analysis was carried out on an extract of the tissue sample. Tissue samples were contacted with 3 ml of solvent (a 4:1 admixture of 2,2,4-trimethylpentane and isopropyl alcohol). The mixture was shaken for 15 minutes and stored overnight at room temperature, protected from light. The next morning 1 milliliter of water was added to the sample and shaken for 15 minutes. The sample was then centrifuged at approximately 1500 rpm for 15 minutes. Two ml of the organic phase (top layer) was transferred to a glass vial, dried at 37° C., under nitrogen, for approximately 1 hour, and then lyophilized for approximately 48 hours. The samples were then removed from the lyophilizer and each vial was reconstituted with 600 μl of solvent A (trimethylpentane/tetrahydrofuran (99:1)). The samples were then recapped and vortexed for 5 minutes.
Two hundred (200) μl of each sample was then transferred to a pre-labeled 200 μl HPLC vial with 200 μL glass inserts. The HPLC vials were placed in the autosampler tray for the Agilent 1100 series HPLC unit. The Agilent 1100 HPLC system consisted of a thermostated autosampler, a quarternary pump, a column heater, and an A/D interface module. All components were controlled by Agilent ChemStation software. A Waters Spherisorb S3W 4.6×100 mm analytical column was maintained at 30° C. by the Agilent column heater unit.
The HPLC autosampler was programmed to maintain the sample temperature at 20° C. throughout the run.
Ten (10) uL of each sample was injected in triplicate into the column. Two solvents were used for the solvent gradient. Solvent A was an admixture of trimethylpentane and tetrahydrofuran (99:1). Solvent B was ethylacetate. The gradient utilized is described in the table below: […]
The Sedex 75 Evaporative Light Scattering Detector (ELSD) was operated at 45° C. with a gain of 5, and N2 pressure maintained at 3.1 bar. Analog signal obtained by the instrument was sent to the Agilent A/D interface module where it was converted to a digital output. […]

[1] = cholesterol ester vs vehicle control, read-out: % CE reduction
[2] = wax ester vs vehicle control, read-out: % WE reduction

SMILES | inhibition in vivo at 1 % [1] [%] | inhibition in vivo at 1 % [2] [%] | further results
CC(Oc1ccc(C#N)c(C(F)(F)F)c1)c1ccccc1 (racemic) [Example 1, 4-(1-Phenyl-ethoxy)-2-trifluoromethyl-benzonitrile] | – | – | inhibition in vivo at 3 % [1]: 52%; inhibition in vivo at 3 % [2]: 71%
CCCC(Oc1ccc(C#N)c(C(F)(F)F)c1)c1cccc(O)c1 (racemic) [Example 14, 4-[1-(3-Hydroxyphenyl)butoxy]-2-(trifluoromethyl)benzonitrile] | – | – | inhibition in vivo at 3 % [1]: 18%; inhibition in vivo at 3 % [2]: 38%
CCCC(Oc1ccc(C#N)c(C(F)(F)F)c1)c1cccc(O)c1 (single isomer, unassigned; (+)) [Example 15, (+)4-[1-(3-Hydroxyphenyl)butoxy]-2-(trifluoromethyl)benzonitrile] | -10 | -13 | –
CC(C)CC(Oc1ccc(C#N)c(C(F)(F)F)c1)c1cccc(O)c1 (single isomer, unassigned; (+)) [Example 21, (+)4-[1-(3-Hydroxyphenyl)-3-methylbutoxy]-2-(trifluoromethyl)benzonitrile] | 7 | 19 | –
CC(Oc1ccc(C#N)c(C(F)(F)F)c1)c1cncc(O)c1 (single isomer, unassigned; (+)) [Example 74, (+)4-[1-(5-Hydroxypyridin-3-yl)ethoxy]-2-(trifluoromethyl)benzonitrile] | 21 | 24 | –
CC(Oc1ccc(C#N)c(C(F)(F)F)c1)c1cccc(O)c1 (single isomer, unassigned; (-)) [Example 9, (−)-4-[1-(3-Hydroxyphenyl)ethoxy]-2-(trifluoromethyl)benzonitrile] | – | – | inhibition in vivo at 3 % [1]: 38%; inhibition in vivo at 3 % [2]: 52%
C=CCC(Oc1ccc(C#N)c(C(F)(F)F)c1)c1cccc(O)c1 (single isomer, unassigned; (-)) [Example 19, (−)4-{[1-(3-Hydroxyphenyl)but-3-enyl]oxy}-2-(trifluoromethyl)benzonitrile] | 6 | 13 | –
N#Cc1ccc(OCc2cccc(O)c2)cc1C(F)(F)F [Example 6, 4-[(3-Hydroxybenzyl)oxy]-2-(trifluoromethyl)benzonitrile] | – | – | inhibition in vivo at 1.5 % [1]: 25%; inhibition in vivo at 1.5 % [2]: 40%
CCC(Oc1ccc(C#N)c(C(F)(F)F)c1)c1ccccn1 (stereo not drawn) [Example 79, 4-(1-Pyridin^−2-yl-propoxy)-2-trifluoromethyl-benzonitrile] | 20 | 27 | –
COc1cccc(C(C)Oc2ccc(C#N)c(C(F)(F)F)c2)n1 (stereo not drawn) [Example 80, 4-[1-(6-Methoxy-pyridin-2-yl)-ethoxy]-2-trifluoromethyl-benzonitrile] | 39 | 50 | –
CC(C)CC(Oc1ccc(C#N)c(C(F)(F)F)c1)c1cccnc1 (stereo not drawn) [Example 88, 4-(3-Methyl-1-pyridin-3-yl-butoxy)-2-trifluoromethyl-benzonitrile] | 17 | 25 | –
Cc1ccc(C(CC(C)C)Oc2ccc(C#N)c(C(F)(F)F)c2)cn1 (stereo not drawn) [Example 89, 4-[3-Methyl-1-(6-methyl-pyridin-3-yl)-butoxy]-2-trifluoromethyl-benzonitrile] | 21 | 35 | –
